Laboratory results reported in US20240058464A1 (Fortis Therapeutics, Inc., priority 2021, published 2024).

Legend:
[1] = tested on: CD46 expression; test: CD46 expression by RNA-sequencing in paired tumor biopsies before and after therapy; details: for CD46 expression diff (post minus pre) / Percent Change in CD46 expression / CD46 expression, Post-Treatment Biopsy / CD46 expression, Pre-Treatment Biopsy: paired biopsies; for CD46 expression, Post-Treatment Biopsy / CD46 expression, Pre-Treatment Biopsy: RNA-seq log2-transformed counts;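 as to all read-outs here: FFPE human tumor biopsies, exome-capture RNA-seq, reads aligned to GRCh37, counts normalized for GC content, length and depth, summed per gene, log2-transformed, samples paired before versus after therapy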
Description: Gene expression was determined by RNA-sequencing from formalin-fixed, paraffin-embedded (FFPE) tumor samples using an exome capture-based protocol. Briefly, total nucleic acid was extracted from FFPE solid tumor samples. The RNA sample was treated with DNAse and reverse transcribed. cDNA was captured with a custom probe set targeting the human exome. A library was prepared from the captured cDNA and sequenced on the Illumina platform. Sequence read were aligned to GRCh37 using Kallisto and normalized to quantify gene expression. Specifically, transcript counts were corrected for GC content and length using quantile normalization and adjusted for sequencing depth via a size factor method. Normalized counts in protein coding transcripts covered by the exome panel were then summed to obtain gene-level counts. Subsequent expression analyses were performed on log2-transformed counts.

[2] = tested on: CD46 expression; test: CD46 expression by RNA-sequencing in unpaired pre-treatment and post-treatment tumor biopsies; type: in vivo, human; details: for CD46 expression Post: post-treatment biopsies
[3] = Biliary Cancer, Post minus Pre, unpaired biopsies, log2-transformed counts
[4] = Biliary Cancer, post- vs pre-treatment unpaired biopsies
[5] = Biliary Cancer, unpaired, RNA-seq log2-transformed normalized counts
[6] = Bladder Cancer, post minus pre, unpaired biopsies
[7] = Bladder Cancer, post vs pre, unpaired biopsies
[8] = Bladder Cancer, log2-transformed RNA-seq counts
[9] = Breast Cancer, Post minus Pre, unpaired biopsies, log2-transformed counts
[10] = Breast Cancer, post- vs pre-treatment unpaired biopsies
[11] = Breast Cancer, unpaired, RNA-seq log2-transformed normalized counts
[12] = Head and Neck Squamous Cell Carcinoma, Post minus Pre, unpaired biopsies, log2-transformed counts
[13] = Head and Neck Squamous Cell Carcinoma, post- vs pre-treatment unpaired biopsies
[14] = Head and Neck Squamous Cell Carcinoma, unpaired, RNA-seq log2-transformed normalized counts
[15] = Non-Small Cell Lung Cancer, Post minus Pre, unpaired biopsies, log2-transformed counts
[16] = Non-Small Cell Lung Cancer, post- vs pre-treatment unpaired biopsies
[17] = Non-Small Cell Lung Cancer, unpaired, RNA-seq log2-transformed normalized counts
[18] = Ovarian Cancer, Post minus Pre, unpaired biopsies, log2-transformed counts
[19] = Ovarian Cancer, post- vs pre-treatment unpaired biopsies
[20] = Ovarian Cancer, unpaired, RNA-seq log2-transformed normalized counts
[21] = Sarcoma, Post minus Pre, unpaired biopsies, log2-transformed counts
[22] = Sarcoma, post- vs pre-treatment unpaired biopsies
[23] = Sarcoma, unpaired, RNA-seq log2-transformed normalized counts
[24] = Colorectal Cancer, Post minus Pre, unpaired biopsies, log2-transformed counts
[25] = Colorectal Cancer, post- vs pre-treatment unpaired biopsies
[26] = Colorectal Cancer, unpaired, RNA-seq log2-transformed normalized counts
[27] = Pancreatic Cancer, post minus pre, unpaired biopsies
[28] = Pancreatic Cancer, post vs pre, unpaired biopsies
[29] = Pancreatic Cancer, log2-transformed RNA-seq counts
[30] = Gastric Cancer, post minus pre, unpaired biopsies
[31] = Gastric Cancer, post vs pre, unpaired biopsies
[32] = Gastric Cancer, log2-transformed RNA-seq counts
[33] = Prostate Cancer, Post minus Pre, unpaired biopsies, log2-transformed counts
[34] = Prostate Cancer, post- vs pre-treatment unpaired biopsies
[35] = Prostate Cancer, unpaired, RNA-seq log2-transformed normalized counts

N.N.[Cl][Pt][Cl] [cisplatin]
CD46 expression diff (post minus pre) ([1]; Biliary Cancer): 0.15 | Percent Change in CD46 expression ([1]; Biliary Cancer): 2.6% | CD46 expression, Post-Treatment Biopsy ([1]; Biliary Cancer): 5.97 | CD46 expression, Pre-Treatment Biopsy ([1]; Biliary Cancer): 5.82 | CD46 expression diff (post minus pre) ([1]; Bladder Cancer): 0.10 | Percent Change in CD46 expression ([1]; Bladder Cancer): 1.6% | CD46 expression, Pre-Treatment Biopsy ([1]; Bladder Cancer): 6.15 | CD46 expression diff (post minus pre) ([1]; Non-Small Cell Lung Cancer): −0.45 | Percent Change in CD46 expression ([1]; Non-Small Cell Lung Cancer): −7.2% | CD46 expression, Post-Treatment Biopsy ([1]; Non-Small Cell Lung Cancer): 5.85 | CD46 expression diff [2, 3]: −0.06 | CD46 expression Percentage change [2, 4]: −1.0% | CD46 expression Post [2, 5]: 5.76 | CD46 expression diff [2, 6]: −0.19 | CD46 expression Percentage change [2, 7]: −3.1% | CD46 expression Post [2, 8]: 6.00 | CD46 expression Pre ([2]; Bladder Cancer, pre-treatment biopsies, log2-transformed RNA-seq counts): 6.19 | CD46 expression diff [2, 9]: 0.02 | CD46 expression Percentage change [2, 10]: 0.3% | CD46 expression Post [2, 11]: 5.98 | CD46 expression diff ([2]; Endometrial Cancer, Post minus Pre, unpaired biopsies, log2-transformed counts): 0.26 | CD46 expression Percentage change ([2]; Endometrial Cancer, post- vs pre-treatment unpaired biopsies): 4.6% | CD46 expression Post ([2]; Endometrial Cancer, unpaired, RNA-seq log2-transformed normalized counts): 5.99 | CD46 expression diff [2, 12]: 0.13 | CD46 expression Percentage change [2, 13]: 2.4% | CD46 expression Post [2, 14]: 5.69 | CD46 expression diff [2, 15]: −0.05 | CD46 expression Percentage change [2, 16]: −0.8% | CD46 expression Post [2, 17]: 6.11 | CD46 expression diff [2, 18]: 0.03 | CD46 expression Percentage change [2, 19]: 0.6% | CD46 expression Post [2, 20]: 5.79 | CD46 expression diff ([2]; Pancreatic Cancer, Post minus Pre, unpaired biopsies, log2-transformed counts): 0.18 | CD46 expression Percentage change ([2]; Pancreatic Cancer, post- vs pre-treatment unpaired biopsies): 3.1% | CD46 expression Post ([2]; Pancreatic Cancer, unpaired, RNA-seq log2-transformed normalized counts): 6.16 | CD46 expression diff [2, 21]: 0.19 | CD46 expression Percentage change [2, 22]: 3.9% | CD46 expression Post [2, 23]: 5.02 | CD46 expression after treatment vs pre-treatment ([2]; head and neck squamous cell carcinoma, unpaired biopsies, FIG. 7): significantly higher

O=P1(N(CCCl)CCCl)NCCCO1 (centres unmarked) [cyclophosphamide]
CD46 expression diff (post minus pre) ([1]; Breast Cancer): 0.01 | Percent Change in CD46 expression ([1]; Breast Cancer): 0.2% | CD46 expression, Post-Treatment Biopsy ([1]; Breast Cancer): 6.22 | CD46 expression diff [2, 9]: −0.03 | CD46 expression Percentage change [2, 10]: −0.4% | CD46 expression Post [2, 11]: 6.08 | CD46 expression diff [2, 18]: 0.11 | CD46 expression Percentage change [2, 19]: 1.9% | CD46 expression Post [2, 20]: 5.76 | CD46 expression diff [2, 21]: 0.06 | CD46 expression Percentage change [2, 22]: 1.2% | CD46 expression Post [2, 23]: 5.12

C[C@@H]1C[C@H]2[C@@H]3CCC4=CC(=O)C=C[C@]4(C)[C@@]3(F)[C@@H](O)C[C@]2(C)[C@@]1(O)C(=O)CO [dexamethasone]
CD46 expression diff (post minus pre) ([1]; Colorectal Cancer): −0.19 | Percent Change in CD46 expression ([1]; Colorectal Cancer): −3.0% | CD46 expression, Post-Treatment Biopsy ([1]; Colorectal Cancer): 5.96 | CD46 expression diff [2, 9]: −0.07 | CD46 expression Percentage change [2, 10]: −1.1% | CD46 expression Post [2, 11]: 6.20 | CD46 expression diff [2, 24]: 0.06 | CD46 expression Percentage change [2, 25]: 1.0% | CD46 expression Post [2, 26]: 6.44 | CD46 expression diff [2, 15]: 0.00 | CD46 expression Percentage change [2, 16]: 0.0% | CD46 expression Post [2, 17]: 6.14 | CD46 expression diff ([2]; Ovarian Cancer, post minus pre, unpaired biopsies): −0.22 | CD46 expression Percentage change ([2]; Ovarian Cancer, post vs pre, unpaired biopsies): −3.9% | CD46 expression Post ([2]; Ovarian Cancer, log2-transformed RNA-seq counts): 5.48 | CD46 expression diff [2, 27]: −0.27 | CD46 expression Percentage change [2, 28]: −4.5% | CD46 expression Post [2, 29]: 5.75

CC(=O)O[C@@]12CO[C@@H]1C[C@H](O)[C@@]1(C)C(=O)[C@H](O)C3=C(C)[C@@H](OC(=O)[C@H](O)[C@@H](NC(=O)OC(C)(C)C)c4ccccc4)C[C@@](O)([C@@H](OC(=O)c4ccccc4)[C@H]21)C3(C)C [docetaxel]
CD46 expression diff (post minus pre) ([1]; Breast Cancer): 0.22 | Percent Change in CD46 expression ([1]; Breast Cancer): 3.7% | CD46 expression, Post-Treatment Biopsy ([1]; Breast Cancer): 6.19 | CD46 expression diff (post minus pre) ([1]; Prostate Cancer): −0.03 | Percent Change in CD46 expression ([1]; Prostate Cancer): −0.4% | CD46 expression, Post-Treatment Biopsy ([1]; Prostate Cancer): 5.76 | CD46 expression diff [2, 9]: 0.04 | CD46 expression Percentage change [2, 10]: 0.7% | CD46 expression Post [2, 11]: 6.23 | CD46 expression diff [2, 30]: −0.17 | CD46 expression Percentage change [2, 31]: −3.0% | CD46 expression Post [2, 32]: 5.59 | CD46 expression diff [2, 15]: 0.02 | CD46 expression Percentage change [2, 16]: 0.3% | CD46 expression diff [2, 18]: 0.12 | CD46 expression Percentage change [2, 19]: 2.1% | CD46 expression Post [2, 20]: 5.88 | CD46 expression diff [2, 33]: −0.14 | CD46 expression Percentage change [2, 34]: −2.2% | CD46 expression Post [2, 35]: 6.02 | CD46 expression diff ([2]; Sarcoma, post minus pre, unpaired biopsies): −0.14 | CD46 expression Percentage change ([2]; Sarcoma, post vs pre, unpaired biopsies): −2.8% | CD46 expression Post ([2]; Sarcoma, log2-transformed RNA-seq counts): 5.00

COc1cccc2c1C(=O)c1c(O)c3c(c(O)c1C2=O)C[C@@](O)(C(=O)CO)C[C@@H]3O[C@H]1C[C@H](N)[C@H](O)[C@H](C)O1 [doxorubicin]
CD46 expression diff (post minus pre) ([1]; Breast Cancer): 0.12 | Percent Change in CD46 expression ([1]; Breast Cancer): 1.9% | CD46 expression, Post-Treatment Biopsy ([1]; Breast Cancer): 6.27 | CD46 expression diff (post minus pre) ([1]; Sarcoma): 0.20 | Percent Change in CD46 expression ([1]; Sarcoma): 4.1% | CD46 expression, Post-Treatment Biopsy ([1]; Sarcoma): 5.19 | CD46 expression diff [2, 6]: −0.27 | CD46 expression Percentage change [2, 7]: −4.3% | CD46 expression Post [2, 8]: 5.88 | CD46 expression diff [2, 9]: −0.02 | CD46 expression Percentage change [2, 10]: −0.3% | CD46 expression diff [2, 21]: 0.07 | CD46 expression Percentage change [2, 22]: 1.3% | CD46 expression Post [2, 23]: 5.06

CNC(=O)c1ccc(N2C(=S)N(c3ccc(C#N)c(C(F)(F)F)c3)C(=O)C2(C)C)cc1F [enzalutamide]
CD46 expression diff (post minus pre) ([1]; Prostate Cancer): 0.06 | Percent Change in CD46 expression ([1]; Prostate Cancer): 1.1% | CD46 expression, Post-Treatment Biopsy ([1]; Prostate Cancer): 6.01 | CD46 expression diff [2, 33]: 0.03 | CD46 expression Percentage change [2, 34]: 0.4% | CD46 expression Post [2, 35]: 6.14

C=C1C[C@@H]2CC[C@@]34C[C@H]5O[C@H]6[C@@H](O3)[C@H]3O[C@H](CC[C@@H]3O[C@H]6[C@H]5O4)CC(=O)C[C@@H]3[C@@H](OC)[C@@H](C[C@H](O)CN)O[C@H]3C[C@H]3O[C@@H](CC[C@@H]1O2)C[C@@H](C)C3=C [eribulin]
CD46 expression diff (post minus pre) ([1]; Breast Cancer): −0.54 | Percent Change in CD46 expression ([1]; Breast Cancer): −8.4% | CD46 expression, Post-Treatment Biopsy ([1]; Breast Cancer): 5.92 | CD46 expression diff [2, 9]: 0.11 | CD46 expression Percentage change [2, 10]: 1.8% | CD46 expression Post [2, 11]: 6.20

O=c1[nH]cc(F)c(=O)[nH]1 [fluorouracil]
CD46 expression diff (post minus pre) ([1]; Colorectal Cancer): −0.05 | Percent Change in CD46 expression ([1]; Colorectal Cancer): −0.8% | CD46 expression, Post-Treatment Biopsy ([1]; Colorectal Cancer): 6.27 | CD46 expression diff (post minus pre) ([1]; Esophageal Cancer): −0.31 | Percent Change in CD46 expression ([1]; Esophageal Cancer): −5.2% | CD46 expression, Post-Treatment Biopsy ([1]; Esophageal Cancer): 5.60 | CD46 expression diff (post minus pre) ([1]; Gastric Cancer): −0.09 | Percent Change in CD46 expression ([1]; Gastric Cancer): −1.5% | CD46 expression, Post-Treatment Biopsy ([1]; Gastric Cancer): 5.66 | CD46 expression diff (post minus pre) ([1]; Pancreatic Cancer): 0.09 | Percent Change in CD46 expression ([1]; Pancreatic Cancer): 1.5% | CD46 expression, Post-Treatment Biopsy ([1]; Pancreatic Cancer): 5.92 | subjects whose paired biopsies showed decreased CD46 expression ([1]; esophageal cancer, 10 of 13 subjects, FIG. 4): 77% | CD46 expression diff [2, 3]: 0.00 | CD46 expression Percentage change [2, 4]: 0.0% | CD46 expression Post [2, 5]: 5.92 | CD46 expression diff [2, 9]: 0.06 | CD46 expression Percentage change [2, 10]: 1.0% | CD46 expression Post [2, 11]: 6.18 | CD46 expression diff [2, 24]: 0.06 | CD46 expression Percentage change [2, 25]: 0.9% | CD46 expression Post [2, 26]: 6.44 | CD46 expression diff ([2]; Esophageal Cancer, Post minus Pre, unpaired biopsies, log2-transformed counts): −0.06 | CD46 expression Percentage change ([2]; Esophageal Cancer, post- vs pre-treatment unpaired biopsies): −1.0% | CD46 expression Post ([2]; Esophageal Cancer, unpaired, RNA-seq log2-transformed normalized counts): 5.83 | CD46 expression diff [2, 30]: −0.14 | CD46 expression Percentage change [2, 31]: −2.4% | CD46 expression Post [2, 32]: 5.65 | CD46 expression diff [2, 12]: 0.03 | CD46 expression Percentage change [2, 13]: 0.6% | CD46 expression Post [2, 14]: 5.63 | CD46 expression diff [2, 27]: −0.15 | CD46 expression Percentage change [2, 28]: −2.5% | CD46 expression Post [2, 29]: 5.76

C[C@]12CC[C@@H]3c4ccc(O)cc4C[C@@H](CCCCCCCCC[S+]([O-])CCCC(F)(F)C(F)(F)F)[C@H]3[C@@H]1CC[C@@H]2O (some centres unmarked) [fulvestrant]
CD46 expression diff (post minus pre) ([1]; Breast Cancer): −0.13 | Percent Change in CD46 expression ([1]; Breast Cancer): −2.1% | CD46 expression, Post-Treatment Biopsy ([1]; Breast Cancer): 6.44 | CD46 expression diff [2, 9]: −0.08 | CD46 expression Percentage change [2, 10]: −1.2% | CD46 expression Post [2, 11]: 6.41
